# According to ChEMBL document CHEMBL3217550, “Synthesis and synergistic antimycobacterial screening of chlorpromazine and its metabolites” (2014):
# Key:
# Assay type in all cases: functional
# [1] = test system: Mycolicibacterium smegmatis; assay: Antimycobacterial against Mycobacterium smegmatis
# [2] = test system: Mycolicibacterium smegmatis; assay: Antimycobacterial against Mycobacterium smegmatis in presence of 25-desacetylrifampicin
# [3] = test system: Mycolicibacterium smegmatis; assay: Antimycobacterial against Mycobacterium smegmatis in presence of spectinomycin
# [4] = test system: Mycolicibacterium smegmatis; assay: Antimycobacterial against Mycobacterium smegmatis in presence of streptomycin
# [5] = test system: Mycolicibacterium smegmatis; assay: Antimycobacterial against Mycobacterium smegmatis in presence of kanamycin
# [6] = test system: Mycolicibacterium smegmatis; assay: Antimycobacterial against Mycobacterium smegmatis in presence of rifampicin
# [7] = test system: Mycolicibacterium smegmatis; assay: Antimycobacterial against Mycobacterium smegmatis in presence of chlorpromazine
# [8] = test system: Mycolicibacterium smegmatis; assay: Antimycobacterial against Mycobacterium smegmatis in presence of ciprofloxacin
# [9] = test system: Mycolicibacterium smegmatis; assay: Antimycobacterial against Mycobacterium smegmatis in presence of TMC207
structure (smiles),measurement,setting,value
CNCCCN1c2ccccc2[S+]([O-])c2ccc(Cl)cc21 (configuration not stated),MIC99,[1],> 2080 µM
C[N+](C)([O-])CCCN1c2ccccc2Sc2ccc(Cl)cc21,fractional inhibitory concentration index (FICI),[2],0.75
same,fractional inhibitory concentration index (FICI),[3],0.63
same,fractional inhibitory concentration index (FICI),[4],0.74
same,fractional inhibitory concentration index (FICI),[5],1
same,fractional inhibitory concentration index (FICI),[6],1
same,MIC99,[1],995 µM
C[N+](C)([O-])CCCN1c2ccccc2[S+]([O-])c2ccc(Cl)cc21 (configuration not stated),MIC99,[1],> 1900 µM
CN(C)CCCN1c2ccc(O)cc2Sc2ccc(Cl)cc21 [7-HYDROXYCHLORPROMAZINE],fractional inhibitory concentration index (FICI),[7],0.75
same,fractional inhibitory concentration index (FICI),[2],0.75
same,fractional inhibitory concentration index (FICI),[3],0.19
same,fractional inhibitory concentration index (FICI),[4],0.79
same,fractional inhibitory concentration index (FICI),[5],0.5
same,fractional inhibitory concentration index (FICI),[6],0.63
same,MIC99,[1],62.2 µM
COc1nc2ccc(Br)cc2cc1[C@@H](c1ccccc1)[C@@](O)(CCN(C)C)c1cccc2ccccc12 [BEDAQUILINE],MIC99,[1],0.05 µM
CN(C)CCCN1c2ccccc2[S+]([O-])c2ccc(Cl)cc21 (configuration not stated) [CHLOROPROMAZINE SULFOXIDE],MIC99,[1],> 1990 µM
CN(C)CCCN1c2ccccc2Sc2ccc(Cl)cc21 [CHLORPROMAZINE],fractional inhibitory concentration index (FICI),[2],0.5
same,fractional inhibitory concentration index (FICI),[8],0.73
same,fractional inhibitory concentration index (FICI),[9],0.7
same,fractional inhibitory concentration index (FICI),[3],0.31
same,fractional inhibitory concentration index (FICI),[4],0.79
same,fractional inhibitory concentration index (FICI),[5],1
same,fractional inhibitory concentration index (FICI),[6],0.63
same,MIC99,[1],58.6 µM
O=C(O)c1cn(C2CC2)c2cc(N3CCNCC3)c(F)cc2c1=O [CIPROFLOXACIN],MIC99,[1],0.63 µM
CO[C@H]1/C=C/O[C@@]2(C)Oc3c(C)c(O)c4c(O)c(c(/C=N/N5CCN(C)CC5)c(O)c4c3C2=O)NC(=O)/C(C)=C\C=C\[C@H](C)[C@H](O)[C@@H](C)[C@@H](O)[C@@H](C)[C@H](O)[C@@H]1C [DESACETYLRIFAMPIN],fractional inhibitory concentration index (FICI),[6],0.5
same,MIC99,[1],1.33 µM
CC[C@@H](CO)NCCN[C@@H](CC)CO [ETHAMBUTOL],MIC99,[1],0.76 µM
NC[C@H]1O[C@H](O[C@H]2[C@H](O)[C@@H](O[C@H]3O[C@H](CO)[C@@H](O)[C@H](N)[C@H]3O)[C@H](N)C[C@@H]2N)[C@H](O)[C@@H](O)[C@@H]1O [KANAMYCIN],MIC99,[1],1.76 µM
C[C@H]1COc2c(N3CCN(C)CC3)c(F)cc3c(=O)c(C(=O)O)cn1c23 [LEVOFLOXACIN],MIC99,[1],0.58 µM
CCn1cc(C(=O)O)c(=O)c2ccc(C)nc21 [NALIDIXIC ACID],MIC99,[1],1440 µM
CNCCCN1c2ccccc2Sc2ccc(Cl)cc21 [NOR1-CHLORPROMAZINE],fractional inhibitory concentration index (FICI),[7],0.75
same,fractional inhibitory concentration index (FICI),[2],0.5
same,fractional inhibitory concentration index (FICI),[3],0.31
same,fractional inhibitory concentration index (FICI),[4],0.49
same,fractional inhibitory concentration index (FICI),[5],0.5
same,fractional inhibitory concentration index (FICI),[6],0.5
same,MIC99,[1],63.3 µM
CO[C@H]1/C=C/O[C@@]2(C)Oc3c(C)c(O)c4c(O)c(c(/C=N/N5CCN(C)CC5)c(O)c4c3C2=O)NC(=O)/C(C)=C\C=C\[C@H](C)[C@H](O)[C@@H](C)[C@@H](O)[C@@H](C)[C@H](OC(C)=O)[C@@H]1C [RIFAMPIN],MIC99,[1],1.26 µM
CN[C@@H]1[C@H](O)[C@H](NC)[C@H]2O[C@@]3(O)C(=O)C[C@@H](C)O[C@H]3O[C@@H]2[C@H]1O [SPECTINOMYCIN],MIC99,[1],84.1 µM
CN[C@@H]1[C@H](O[C@H]2[C@H](O[C@H]3[C@H](O)[C@@H](O)[C@H](N=C(N)N)[C@@H](O)[C@@H]3N=C(N)N)O[C@@H](C)[C@]2(O)C=O)O[C@@H](CO)[C@H](O)[C@H]1O [STREPTOMYCIN],MIC99,[1],0.07 µM
